PubChem BioAssay (NCI)
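1) Cells in 96-well plates. 2) Compound, 48 h, 5 concentrations. 3) Linear interpolation between surrounding doses. 4) Unreached endpoint = highest concentration. Abbreviation: GI50, concentration required for 50% inhibition of growth. TGI denotes the concentration required for complete inhibition of growth.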

Tests used:
Experiment in all cases: NCI-60 cell line screen, 48 h
HCC-2998 colon = system: HCC-2998 colon
SK-MEL-28 melanoma = system: SK-MEL-28 melanoma
LOX IMVI melanoma = system: LOX IMVI melanoma
SF-295 CNS = system: SF-295 CNS
DMS 114 small cell lung = system: DMS 114 small cell lung
KM20L2 colon = system: KM20L2 colon
NCI-H522 lung = system: NCI-H522 lung
COLO 205 colon = system: COLO 205 colon
OVCAR-4 ovarian = system: OVCAR-4 ovarian
DU-145 prostate = system: DU-145 prostate

SMILES	TGI (HCC-2998 colon) [µM]	TGI (SK-MEL-28 melanoma) [µM]	TGI (LOX IMVI melanoma) [µM]	TGI (SF-295 CNS) [µM]	TGI (DMS 114 small cell lung) [µM]	TGI (KM20L2 colon) [µM]	TGI (NCI-H522 lung) [µM]	TGI (COLO 205 colon) [µM]	TGI (OVCAR-4 ovarian) [µM]	TGI (DU-145 prostate) [µM]	GI50 (HCC-2998 colon) [µM]	GI50 (DU-145 prostate) [µM]	GI50 (SK-MEL-28 melanoma) [µM]	GI50 (LOX IMVI melanoma) [µM]	GI50 (SF-295 CNS) [µM]	GI50 (OVCAR-4 ovarian) [µM]	GI50 (NCI-H522 lung) [µM]	GI50 (COLO 205 colon) [µM]
Cn1nc(-c2ccccc2)c2c(/C=C/c3ccccc3)onc2c1=O	> 100	> 100	> 100	> 100	> 100	> 100	> 100	> 100										
CC(=O)C1=C(O)C2C3c4c[nH]c5cccc(c45)CC3C(C)(C)N2C1=O (stereo unspecified)	63.4	> 100	67.3	> 100	> 100	> 100	63.4	> 100	> 100									
C=C1C(=O)OC2/C=C(/C)C(OC(C)=O)C/C=C(\C)C(OC(=O)C3(C)OC3C)C(O)C12 (stereo unspecified)	> 100	> 100	> 100	> 100			28.6	> 100	> 100	> 100								
CCOC(=O)c1cnc2c(C)cccc2c1Nc1ccc(C(C)=O)cc1	> 100	> 100	> 100	> 100			> 100	43.4	55.3	> 100	53.3	33.3	50.2	47	36.2	13.5	14.9	17.5
N#CC1c2ccccc2C=CN1C(=O)N(c1ccccc1)c1ccccc1 (stereo unspecified)	23.9	5.84	4.61	25.2			3.33	3.43	8.29	9.36	11.1	3.04	2.43	2.04	12.6	2.99	1.78	1.83
C#CCOc1ccc2ncnc(Nc3ccc(NC(=O)C=C)cc3)c2c1	> 100	> 100	17.5	> 100			39.7	91.5	> 100	> 100	> 100	25.4	23.6	3.92	> 100	> 100	11.8	15.6
COc1ccc(N=N/C(C(=O)C(F)(F)F)=C(\O)c2ccc(Cl)cc2)cc1	16.2	> 100	21.5	11.9			32.1	25.1	> 100	70.8	4.01	14.6	7.22	3.29	2.67	21.6	4.93	11.3
CCOc1ccc(NC(=O)CC2C(=O)Nc3ccccc3S2(=O)=O)cc1 (stereo unspecified)	> 100	> 100	> 100	> 100	> 100	> 100	> 100	> 100	> 100									
CCc1nc(N)nc(N)c1-c1ccc(N2CCNCC2)cc1	> 100	> 100	> 100	> 100			> 100	41.1	> 100	> 100								
CC(=O)OC1COC(n2c(=S)n(-c3ccccc3)c(=O)c3ccccc32)C(OC(C)=O)C1OC(C)=O (stereo unspecified)	> 100	> 100	> 100	85.7	> 100	> 100	> 100	> 100	> 100									
C=CCc1cc(OC)c2c(c1)C(OC)CC(c1ccc(OC)c(OC)c1)O2 (stereo unspecified)	> 100	> 100	> 100	> 100	> 100	> 100		> 100	> 100									
CC1(C)C(=O)C(C)(C)C1=S	> 100	> 100	> 100	> 100	> 100	> 100	> 100	> 100	> 100									
CC[n+]1c(/C=C/C=C2\N(C)c3ccccc3C2(C)C)sc2ccccc21	7.81	7.97	8.48	7.55			9.03	9.13	7.19	7.76	3.86	4.15	4.17	4	3.88	3.85	3.8	4.47
CO[C@H]1C[C@@H]2CC[C@@H](C)[C@@](O)(O2)C(=O)C(=O)N2CCCC[C@H]2C(=O)O[C@H]([C@H](C)C[C@@H]2CC[C@@H](OCCO)[C@H](OC)C2)CC(=O)[C@H](C)C=C(C)[C@@H](O)[C@@H](OC)C(=O)[C@H](C)C[C@H](C)/C=C/C=C/C=C1C	22.1	24.5	17.8	17.3			17.7	30.1	17.1	16.5	4.48		11.3	< 0.01	< 0.01	< 0.0124		12.3
CN1c2ccccc2N(C(=O)c2ccccc2)C(CC(=O)O)c2cccn21 (stereo unspecified)	> 100	> 100	> 100	> 100	> 100	> 100	> 100	> 100	> 100									
